According to ChEMBL document CHEMBL1201862, “PubChem BioAssay data set” (2004):
Activity calls are given as the source filed them.

Key:
[1] = target: Hexokinase-1 (Homo sapiens, UniProt P19367); experiment: hexokinase 1 activity inhibitors, potency – biochemical, set 2, resazurin fluorescence coupled readout, selectivity assay for HKDC1 inhibitor project, SAR follow-up (AID 588356); type: functional
[2] = target: T1, Hexokinase HKDC1 (Homo sapiens, UniProt Q2TB90); experiment: analog inhibition of human HKDC1 activity – biochemical, set 2, SAR follow-up (AID 588355); type: functional
T1 sequence (Q2TB90 whole entry): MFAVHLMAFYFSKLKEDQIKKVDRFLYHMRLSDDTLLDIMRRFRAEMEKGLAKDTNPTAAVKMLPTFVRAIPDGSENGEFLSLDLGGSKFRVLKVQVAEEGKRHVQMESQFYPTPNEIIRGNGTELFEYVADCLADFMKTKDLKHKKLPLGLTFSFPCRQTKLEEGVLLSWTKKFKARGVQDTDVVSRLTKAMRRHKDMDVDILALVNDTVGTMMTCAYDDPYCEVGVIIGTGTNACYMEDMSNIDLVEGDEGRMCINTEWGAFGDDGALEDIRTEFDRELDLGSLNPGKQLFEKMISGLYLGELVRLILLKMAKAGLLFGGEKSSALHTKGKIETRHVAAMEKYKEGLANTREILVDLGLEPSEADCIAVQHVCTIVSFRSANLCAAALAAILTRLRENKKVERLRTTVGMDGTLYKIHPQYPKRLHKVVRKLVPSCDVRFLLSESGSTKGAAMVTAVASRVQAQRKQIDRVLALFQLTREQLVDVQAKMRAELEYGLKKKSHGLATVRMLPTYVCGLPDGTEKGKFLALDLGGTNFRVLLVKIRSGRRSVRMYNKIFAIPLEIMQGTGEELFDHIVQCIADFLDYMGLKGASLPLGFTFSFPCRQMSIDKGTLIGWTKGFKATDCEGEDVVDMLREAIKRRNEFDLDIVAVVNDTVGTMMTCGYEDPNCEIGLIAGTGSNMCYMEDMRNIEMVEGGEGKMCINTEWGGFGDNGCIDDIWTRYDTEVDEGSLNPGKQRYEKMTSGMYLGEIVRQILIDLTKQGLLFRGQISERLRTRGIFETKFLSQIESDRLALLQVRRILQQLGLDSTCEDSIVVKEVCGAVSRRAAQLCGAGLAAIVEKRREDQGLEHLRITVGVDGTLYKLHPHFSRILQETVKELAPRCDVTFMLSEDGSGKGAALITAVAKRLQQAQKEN

[3] = tested on: Escherichia coli; experiment: microbe, parasite or virus in culture
[4] = target: T2, DNA repair and recombination protein RAD54-like (Homo sapiens, UniProt Q92698); experiment: RAD54 Holliday junction migration blockers – biochemical, fluorescence, cherry-picked samples, dose series, confirmation (AID 651657); type: functional
T2 sequence (Q92698 whole entry): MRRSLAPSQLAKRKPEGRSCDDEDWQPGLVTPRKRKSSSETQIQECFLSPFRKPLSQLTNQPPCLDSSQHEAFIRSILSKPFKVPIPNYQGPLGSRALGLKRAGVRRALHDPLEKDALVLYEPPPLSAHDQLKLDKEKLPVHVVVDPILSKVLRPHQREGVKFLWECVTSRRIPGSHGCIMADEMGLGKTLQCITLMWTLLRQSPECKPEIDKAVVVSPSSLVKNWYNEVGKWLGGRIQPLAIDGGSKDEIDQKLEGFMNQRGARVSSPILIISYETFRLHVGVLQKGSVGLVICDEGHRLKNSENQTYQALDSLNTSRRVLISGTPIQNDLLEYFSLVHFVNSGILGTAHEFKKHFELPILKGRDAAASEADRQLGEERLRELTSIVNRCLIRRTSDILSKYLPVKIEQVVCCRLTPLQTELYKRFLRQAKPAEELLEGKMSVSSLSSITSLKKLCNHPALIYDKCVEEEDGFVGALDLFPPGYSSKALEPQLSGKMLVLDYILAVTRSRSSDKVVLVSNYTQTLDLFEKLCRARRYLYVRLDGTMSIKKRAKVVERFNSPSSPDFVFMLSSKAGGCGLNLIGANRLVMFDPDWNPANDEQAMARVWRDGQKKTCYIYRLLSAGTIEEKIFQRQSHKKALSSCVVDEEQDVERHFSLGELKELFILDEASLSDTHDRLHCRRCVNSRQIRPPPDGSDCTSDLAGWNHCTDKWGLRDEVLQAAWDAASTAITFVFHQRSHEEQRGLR

[5] = cells; type: functional
[6] = tested on: Streptococcus; experiment: GAS UMAA2166 growth inhibition – luminescence, BacTiterGlo, counter-screen for streptokinase expression inhibitor project, dose response (AID 1915); type: functional, organism-based;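 further: potency for reduction of bacterial viability or growth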
[7] = tested on: Escherichia coli; experiment: microbe, parasite or virus in culture; remark: listed apart in the source
[8] = tested on: Streptococcus sp. 'group A'; experiment: Streptococcus pyogenes SK(-)GAS viability under kanamycin – luminescence, BacTiterGlo, confirmation, counter-screen for streptokinase expression inhibitor project, dose response (AID 1900); type: functional, organism-based
[9] = target: Genome polyprotein (dengue virus type 2, UniProt P29990); experiment: flavivirus cap methylation enzyme inhibition – biochemical, confirmation dose response, primary screen (AID 588689); type: functional
[10] = target: T3, Small ubiquitin-related modifier 1 (Homo sapiens, UniProt P63165); experiment: SUMO1 protein-protein binding blockers, potency – biochemical, FRET, dose response (AID 624383); type: functional; conditions: read-out: IC50_Mean
T3 sequence (P63165 whole entry, the tested form may be a part): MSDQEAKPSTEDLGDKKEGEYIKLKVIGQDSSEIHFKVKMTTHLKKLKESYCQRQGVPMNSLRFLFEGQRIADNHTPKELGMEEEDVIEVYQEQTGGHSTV

[11] = CCR5-tropic HIV-1 fusion blockers – cell-based, CCR5-tropic Env, dose response (AID 2279); type: functional
[12] = target: DNA (cytosine-5)-methyltransferase 1 (Homo sapiens, UniProt P26358); experiment: inhibition of DNA methylation by DNMT1 – biochemical, fluorescent molecular beacon, confirmation (AID 602386); type: functional
[13] = target: Nonstructural protein 1 (Influenza A virus, UniProt Q194T2); type: functional, Influenza A virus (A/California/07/2009(H1N1))
Chain of Nonstructural protein 1 (Q194T2 whole entry, the tested form may be a part): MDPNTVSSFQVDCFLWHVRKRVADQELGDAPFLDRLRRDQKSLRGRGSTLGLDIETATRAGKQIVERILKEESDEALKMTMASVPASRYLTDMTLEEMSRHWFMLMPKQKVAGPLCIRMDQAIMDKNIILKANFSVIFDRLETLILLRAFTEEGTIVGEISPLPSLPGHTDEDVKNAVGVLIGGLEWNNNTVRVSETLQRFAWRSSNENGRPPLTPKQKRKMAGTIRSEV

[14] = target: Envelope glycoprotein gp160 (Human immunodeficiency virus 1, UniProt Q6QLK5); experiment: cell-free HIV fusion peptide-binding blockers – biochemical, uHTS, fluorescence dequenching, […] (AID 1986)
Chain of Envelope glycoprotein gp160 (Q6QLK5 whole entry, the tested form may be a part): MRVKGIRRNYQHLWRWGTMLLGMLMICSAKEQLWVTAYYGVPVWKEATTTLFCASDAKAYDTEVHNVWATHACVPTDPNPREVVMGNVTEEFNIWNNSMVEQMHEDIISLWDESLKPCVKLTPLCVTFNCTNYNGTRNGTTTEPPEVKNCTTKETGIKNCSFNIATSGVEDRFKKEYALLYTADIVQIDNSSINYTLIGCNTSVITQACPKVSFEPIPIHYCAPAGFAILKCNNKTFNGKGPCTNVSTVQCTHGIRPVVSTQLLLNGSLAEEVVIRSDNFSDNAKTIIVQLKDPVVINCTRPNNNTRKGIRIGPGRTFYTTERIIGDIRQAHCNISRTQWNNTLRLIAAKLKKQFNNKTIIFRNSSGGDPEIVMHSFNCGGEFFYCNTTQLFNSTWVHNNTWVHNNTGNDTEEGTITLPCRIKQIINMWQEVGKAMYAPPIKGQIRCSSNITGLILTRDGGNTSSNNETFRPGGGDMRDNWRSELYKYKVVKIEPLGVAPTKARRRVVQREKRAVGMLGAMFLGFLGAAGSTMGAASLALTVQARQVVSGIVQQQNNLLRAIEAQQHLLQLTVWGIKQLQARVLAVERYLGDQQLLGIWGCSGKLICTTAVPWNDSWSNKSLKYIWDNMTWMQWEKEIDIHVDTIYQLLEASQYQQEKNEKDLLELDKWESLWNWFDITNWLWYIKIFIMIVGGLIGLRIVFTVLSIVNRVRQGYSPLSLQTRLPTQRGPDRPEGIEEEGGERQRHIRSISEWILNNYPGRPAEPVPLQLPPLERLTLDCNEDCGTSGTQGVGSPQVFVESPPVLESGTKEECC

[15] = target: T3, Small ubiquitin-related modifier 1; experiment: SUMO1 protein interaction blockers, potency – biochemical, fluorescence polarization, uHTS hits, dose response (AID 624382); type: functional; conditions: read-out: IC50_Mean
[16] = target: T4, Dual specificity protein phosphatase 3 (Homo sapiens, UniProt P51452); experiment: VHR1 phosphatase inhibitors, primary screen, biochemical, absorbance, uHTS (AID 1654)
T4 sequence (P51452 whole entry): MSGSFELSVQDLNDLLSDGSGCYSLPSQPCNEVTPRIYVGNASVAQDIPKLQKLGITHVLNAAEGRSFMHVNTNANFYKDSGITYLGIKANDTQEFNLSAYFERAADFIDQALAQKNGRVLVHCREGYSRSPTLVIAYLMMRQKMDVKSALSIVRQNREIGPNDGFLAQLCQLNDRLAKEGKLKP

[17] = target: Eukaryotic translation initiation factor 4E (Mus musculus, UniProt P63073); experiment: blockers of eIF4G binding by eIF4E – biochemical, TR-FRET, dose response (AID 855); type: functional;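 further: potency for disrupting eIF4E binding to eIF4GI seen as loss of FRET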
Chain of Eukaryotic translation initiation factor 4E (P63073 whole entry): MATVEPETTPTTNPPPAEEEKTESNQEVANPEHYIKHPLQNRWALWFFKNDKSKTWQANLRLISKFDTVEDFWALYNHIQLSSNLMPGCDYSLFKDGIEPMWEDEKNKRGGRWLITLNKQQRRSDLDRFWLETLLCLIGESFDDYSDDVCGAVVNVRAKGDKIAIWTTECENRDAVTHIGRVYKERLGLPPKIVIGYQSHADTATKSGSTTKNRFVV

[18] = target: T5, Dual specificity protein phosphatase 6 (Rattus norvegicus, UniProt Q64346); experiment: inhibition of rat DUSP6 enzyme activity – biochemical, in vitro, primary screen (AID 425)
T5 sequence (Q64346 whole entry): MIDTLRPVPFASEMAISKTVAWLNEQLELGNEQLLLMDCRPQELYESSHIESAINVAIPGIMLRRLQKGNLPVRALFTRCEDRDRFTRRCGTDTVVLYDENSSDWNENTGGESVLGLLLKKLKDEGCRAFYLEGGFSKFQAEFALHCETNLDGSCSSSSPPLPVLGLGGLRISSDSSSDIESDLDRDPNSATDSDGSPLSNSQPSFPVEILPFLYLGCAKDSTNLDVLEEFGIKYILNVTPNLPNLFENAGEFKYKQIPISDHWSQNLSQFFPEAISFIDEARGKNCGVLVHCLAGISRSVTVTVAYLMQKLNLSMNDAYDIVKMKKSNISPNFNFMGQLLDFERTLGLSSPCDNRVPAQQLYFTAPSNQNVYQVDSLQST

[19] = target: T4, Dual specificity protein phosphatase 3; experiment: VHR1 phosphatase inhibitors, biochemical (AID 1878)
[20] = tested on: Vero; experiment: viability of Vero cells under compound – cytotoxicity control for flavivirus capping enzyme inhibitors (AID 588742); type: functional; conditions: Chlorocebus sabaeus
[21] = tested on: A-375; experiment: MITF: Counter assay: A375 proliferation Measured in Cell-Based System Using Plate Reader - 2084-03_Inhibitor_Dose_DryPowder_Activity. [Related pubchem assays (depositor defined):AID488944]; type: functional; conditions: Homo sapiens
[22] = tested on: A-375; experiment: proliferation inhibition in MITF-low A375 cells – cell-based, cherry-pick samples, set 2, counter-screen for MITF modulator project, dose response (AID 540335); type: functional; conditions: Homo sapiens
[23] = tested on: HEK293; experiment: SAR Analysis of small molecule inhibitors of T-cell specific antigen receptor-induced NF-kB activation in a HEK-293T cell line using a luminescence assay - Set 2. [Related pubchem assays (depositor defined):AID435003, AID435012, AID489026]; type: functional, cell-based; conditions: Homo sapiens
[24] = tested on: HEK293; experiment: HEK293T cell viability loss, resazurin readout – resazurin fluorescence, cytotoxicity control for NF-kB activator project, SAR follow-up (AID 493251); type: functional, cell-based; conditions: Homo sapiens
[25] = tested on: Jurkat; experiment: SAR Analysis of small molecule inhibitors of T-cell specific antigen receptor-induced NF-kB activation in a Jurkat cell line using a luminescence assay - Set 2. [Related pubchem assays (depositor defined):AID435003, AID435012, AID465]; type: functional, cell-based; conditions: Homo sapiens
[26] = Counterscreen for AddAB inhibitors: absorbance-based bacterial cell-based high throughput dose response assay for inhibitors of bacterial viability. [Related pubchem assays (depositor defined):AID435030, AID449728, AID449731, AID488942, AID488955, AID488956]; type: functional
[27] = target: Beta-adrenergic receptor kinase 1 (Homo sapiens, UniProt P25098); experiment: aptamer displacement from bead-bound GRK2 – biochemical, cherry pick 1, bead flow cytometry, dose response (AID 504500)
[28] = tested on: INS1; experiment: INS-1E survival protection against cytokine death – cell-based, luminescence, retest, dose response (AID 449756); type: functional; conditions: Rattus norvegicus;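 further: cell death triggered by IL-1 beta plus TNF-alpha plus IFN-gamma mixture; protective hits raise ATP signal compared with cytokine alone wells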
[29] = target: Cystic fibrosis transmembrane conductance regulator/Golgi-associated PDZ and coiled-coil motif-containing protein (Homo sapiens, UniProt P13569+Q9HD26); experiment: potency against CAL PDZ-peptide interaction – biochemical, fluorescence polarization, Cerulean-tagged CAL PDZ, cherry-picks, dose response (AID 504773)
[30] = target: G-protein coupled receptor 55 (Homo sapiens, UniProt Q9Y2T6); experiment: selective activators of receptor GPR55 – imaging, U2OS cells, beta-arrestin-GFP redistribution, primary screen (AID 1961); type: functional
Chain of G-protein coupled receptor 55 (Q9Y2T6 whole entry): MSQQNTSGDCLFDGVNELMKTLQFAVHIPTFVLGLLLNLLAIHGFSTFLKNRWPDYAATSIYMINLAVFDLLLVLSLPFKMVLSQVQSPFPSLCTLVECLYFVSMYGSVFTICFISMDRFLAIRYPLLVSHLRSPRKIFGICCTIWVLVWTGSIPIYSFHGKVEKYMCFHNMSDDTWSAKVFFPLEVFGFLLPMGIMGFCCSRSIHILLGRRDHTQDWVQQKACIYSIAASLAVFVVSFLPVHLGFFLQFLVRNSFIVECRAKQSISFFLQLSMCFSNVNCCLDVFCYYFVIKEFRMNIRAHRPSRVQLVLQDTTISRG

[31] = target: Exodeoxyribonuclease V (Escherichia coli (strain K12), UniProt P04993+P07648+P08394); experiment: RecBCD inhibition via phage-restricted bacterial growth – absorbance, V66 E. coli, mutant T4 phage, counter-screen for AddAB inhibitor project, dose response (AID 492957); type: functional, cell-based, Escherichia coli str. K-12 substr. MG1655
Chain of Exodeoxyribonuclease V (P04993 whole entry): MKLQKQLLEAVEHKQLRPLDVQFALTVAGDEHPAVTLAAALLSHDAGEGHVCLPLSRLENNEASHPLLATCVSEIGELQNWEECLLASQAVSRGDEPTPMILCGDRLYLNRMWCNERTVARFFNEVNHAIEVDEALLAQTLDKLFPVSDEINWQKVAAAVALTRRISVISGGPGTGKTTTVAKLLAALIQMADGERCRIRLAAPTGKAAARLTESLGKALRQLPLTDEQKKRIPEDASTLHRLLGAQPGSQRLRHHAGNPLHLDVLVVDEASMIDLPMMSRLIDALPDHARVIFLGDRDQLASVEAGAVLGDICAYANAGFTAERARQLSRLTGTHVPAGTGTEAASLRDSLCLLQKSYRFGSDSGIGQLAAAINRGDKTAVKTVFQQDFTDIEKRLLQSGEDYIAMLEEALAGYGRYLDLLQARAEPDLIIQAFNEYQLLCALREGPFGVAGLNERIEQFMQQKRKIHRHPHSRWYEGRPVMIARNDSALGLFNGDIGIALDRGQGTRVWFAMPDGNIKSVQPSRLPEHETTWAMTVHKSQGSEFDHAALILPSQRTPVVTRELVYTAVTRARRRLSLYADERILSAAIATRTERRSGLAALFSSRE
Chain of Exodeoxyribonuclease V (P07648 whole entry): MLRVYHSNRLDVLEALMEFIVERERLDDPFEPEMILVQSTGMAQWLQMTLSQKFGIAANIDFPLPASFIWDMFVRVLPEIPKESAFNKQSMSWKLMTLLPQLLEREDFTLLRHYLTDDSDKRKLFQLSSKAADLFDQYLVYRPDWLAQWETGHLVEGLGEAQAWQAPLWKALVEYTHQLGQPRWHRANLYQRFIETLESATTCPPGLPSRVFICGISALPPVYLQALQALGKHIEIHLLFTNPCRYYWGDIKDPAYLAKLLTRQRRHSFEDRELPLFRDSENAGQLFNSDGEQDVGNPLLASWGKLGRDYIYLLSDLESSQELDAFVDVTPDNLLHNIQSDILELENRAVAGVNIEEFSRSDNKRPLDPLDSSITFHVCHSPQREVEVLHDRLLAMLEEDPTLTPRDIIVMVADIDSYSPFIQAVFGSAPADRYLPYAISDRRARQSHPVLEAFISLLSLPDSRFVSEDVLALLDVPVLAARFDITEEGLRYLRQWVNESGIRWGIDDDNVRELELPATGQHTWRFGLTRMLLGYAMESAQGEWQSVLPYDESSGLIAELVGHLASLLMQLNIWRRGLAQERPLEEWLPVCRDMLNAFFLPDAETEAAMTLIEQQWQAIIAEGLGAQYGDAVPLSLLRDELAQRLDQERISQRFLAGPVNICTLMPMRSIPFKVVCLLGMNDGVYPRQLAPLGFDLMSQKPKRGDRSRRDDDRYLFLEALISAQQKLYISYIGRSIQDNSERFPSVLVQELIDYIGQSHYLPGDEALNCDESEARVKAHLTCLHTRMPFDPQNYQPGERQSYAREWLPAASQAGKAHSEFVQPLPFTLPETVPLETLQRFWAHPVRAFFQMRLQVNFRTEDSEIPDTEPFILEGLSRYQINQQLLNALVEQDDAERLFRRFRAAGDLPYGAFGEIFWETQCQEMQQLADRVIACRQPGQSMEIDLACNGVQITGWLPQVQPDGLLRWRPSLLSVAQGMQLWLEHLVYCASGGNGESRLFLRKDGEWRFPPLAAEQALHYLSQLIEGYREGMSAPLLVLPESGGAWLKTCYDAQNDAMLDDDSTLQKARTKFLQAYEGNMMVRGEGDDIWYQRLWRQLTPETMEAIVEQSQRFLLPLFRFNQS
Chain of Exodeoxyribonuclease V (P08394 whole entry): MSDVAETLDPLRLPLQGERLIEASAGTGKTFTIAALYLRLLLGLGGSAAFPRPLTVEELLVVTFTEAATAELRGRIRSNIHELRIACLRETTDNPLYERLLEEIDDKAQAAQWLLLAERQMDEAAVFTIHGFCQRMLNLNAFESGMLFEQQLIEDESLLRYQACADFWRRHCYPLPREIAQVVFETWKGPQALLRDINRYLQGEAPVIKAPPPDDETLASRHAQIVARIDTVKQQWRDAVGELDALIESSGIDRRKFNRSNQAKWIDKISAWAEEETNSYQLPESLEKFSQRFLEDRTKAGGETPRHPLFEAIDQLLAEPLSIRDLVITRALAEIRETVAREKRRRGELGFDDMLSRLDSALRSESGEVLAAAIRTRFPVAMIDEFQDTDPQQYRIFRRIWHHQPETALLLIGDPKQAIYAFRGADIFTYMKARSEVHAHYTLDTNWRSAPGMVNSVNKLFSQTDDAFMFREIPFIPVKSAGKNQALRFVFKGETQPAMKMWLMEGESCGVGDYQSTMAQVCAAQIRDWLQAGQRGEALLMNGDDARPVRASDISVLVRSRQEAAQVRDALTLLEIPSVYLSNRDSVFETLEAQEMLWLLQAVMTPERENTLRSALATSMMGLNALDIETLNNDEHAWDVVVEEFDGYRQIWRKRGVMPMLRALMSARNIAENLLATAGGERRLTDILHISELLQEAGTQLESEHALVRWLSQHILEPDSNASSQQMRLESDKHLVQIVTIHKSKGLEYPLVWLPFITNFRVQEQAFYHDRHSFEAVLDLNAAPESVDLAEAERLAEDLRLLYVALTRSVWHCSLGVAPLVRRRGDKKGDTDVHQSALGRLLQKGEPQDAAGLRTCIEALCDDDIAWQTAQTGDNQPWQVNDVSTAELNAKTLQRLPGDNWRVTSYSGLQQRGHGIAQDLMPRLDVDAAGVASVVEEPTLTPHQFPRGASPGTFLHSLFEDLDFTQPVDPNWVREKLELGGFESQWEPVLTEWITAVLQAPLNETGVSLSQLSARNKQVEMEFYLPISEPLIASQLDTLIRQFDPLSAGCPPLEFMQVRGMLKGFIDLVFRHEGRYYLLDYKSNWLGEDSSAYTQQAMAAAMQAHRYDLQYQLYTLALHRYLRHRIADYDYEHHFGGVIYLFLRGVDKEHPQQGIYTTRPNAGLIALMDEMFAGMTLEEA

[32] = target: Dual specificity tyrosine-phosphorylation-regulated kinase 1A (Rattus norvegicus, UniProt Q63470); type: biochemical, Homo sapiens
[33] = target: Voltage-gated inwardly rectifying potassium channel KCNH2 (Homo sapiens, UniProt Q12809); conditions: Potency;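 further: confirmatory quantitative high-throughput screen measuring inhibition of hERG channel activity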
[34] = target: DNA topoisomerase (Yersinia pestis, UniProt A0A2S9PM60); experiment: Yersinia topoisomerase I cleavage product accumulation – biochemical, cherry-pick, dose response (AID 588525)
[35] = blockers of SFLLRN-triggered platelet ATP secretion – cell-based, human platelets, luminescence, dry powder, dose response (AID 493100); type: functional
[36] = Luminescence Cell-Based Dose Response Follow up to Identify Inhibitors of Platelet Dense Granule Release. [Related pubchem assays (depositor defined):AID1663, AID1678, AID2398]; type: functional
[37] = PAR1 agonist-induced platelet activation inhibition – cell-based, fluorescence, flow cytometry, human platelets, dose response (AID 2511); type: functional

O=C(NC1C(=O)N(CCN2CCOCC2)c2ccccc21)c1ccccc1 (configuration not stated)
IC50 [1]: > 80 µM (inactive)
IC50 [2]: > 80 µM (inactive)

NC1CCN(c2c(F)cc3c(=O)c(C(=O)O)cn(C4CC4)c3c2Cl)C1 (configuration not stated) [CLINAFLOXACIN]
AC50 [3]: 4.49 µM (active)
AC50 [4]: 41.4 µM (active)
IC50 [5]: 0.15 µM (active)
EC50 [6]: 0.142 µM (active)
AC50 [7]: 0.816 µM (active)
EC50 [8]: 0.115 µM (active)

COc1cc(/C=C2\SC(=O)N(Cc3ccc(Cl)cc3)C2=O)cc([N+](=O)[O-])c1O
IC50 [9]: 67.5 µM (active)
IC50 [10]: 6.99 µM (active)
IC50 [11]: > 50 µM (active)
IC50 [12]: 4.6 µM (active)
IC50 [13]: 26.9 µM (active)
IC50 [14]: 14.9 µM (active)
IC50 [15]: > 66.6 µM (inactive)
IC50 [16]: 4.68 µM (active)
IC50 [17]: 36.7 µM (inactive)
IC50 [18]: > 158 µM (not active)
IC50 [19]: 3.54 µM (active)
CC50 [20]: > 40 µM (active)

CSC(=N)N/N=C/c1ccc2c(c1)OCO2
AC50 [21]: > 35 µM (active)
AC50 [22]: > 35 µM (active)

O=C(Nc1ccc2c(c1)CCO2)c1ccc([N+](=O)[O-])o1
IC50 [23]: 45.6 µM (inactive)
IC50 [24]: 59.5 µM (inactive)
IC50 [25]: 33.8 µM (inactive)

O=C(c1ccccc1)c1c2c(cc3sc4ccccc4[n+]13)-c1cccc3cccc-2c13
IC50 [26]: 15.1 µM (inactive)
EC50 [27]: 0.06 µM (active)
AC50 [28]: 2.05 µM (active)
AC50 [29]: 72.6 µM (active)
EC50 [30]: > 32 µM (inactive)
IC50 [31]: 91.3 µM (inactive)

c1nc2sc3c(c2c2nnnn12)CCCC3
AC50 [32]: 63.2 µM (active)

O=[N+]([O-])c1cccc(Cl)c1Cl
AC50 [33]: 50.1 µM (inconclusive)

CSc1ccccc1OCc1cc(C(=O)NCCCc2ccccc2)no1
AC50 [34]: 17 µM (active)

Cc1ccc(-c2c(C#N)c(N)n(-c3ccc(Cl)cc3)c(=O)c2C#N)cc1
AC50 [35]: 20.4 µM (active)
EC50 [36]: 9.21 µM (active)
EC50 [37]: < 3 µM (active)
